Data as given in PubChem BioAssay (NCI).
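Dose response: 5 concentrations. Exposure: 48 h. Format: 96-well plates. Endpoint: linear interpolation; highest concentration if not reached. TGI is the concentration that stops growth completely.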

What was measured:
Assay in all cases: NCI tumour cell line growth inhibition, 48 h
EKVX NSCLC = tested on: EKVX NSCLC
K-562 leukemia = tested on: K-562 leukemia
NCI-H226 lung = tested on: NCI-H226 lung
HOP-62 NSCLC = tested on: HOP-62 NSCLC
HS 578T breast = tested on: HS 578T breast
MDA-MB-435 = tested on: MDA-MB-435
SF-539 CNS = tested on: SF-539 CNS
T-47D breast = tested on: T-47D breast
OVCAR-8 ovarian = tested on: OVCAR-8 ovarian
SK-MEL-5 melanoma = tested on: SK-MEL-5 melanoma
HCT-116 colon = tested on: HCT-116 colon
MCF7 breast = tested on: MCF7 breast
RXF 393 renal = tested on: RXF 393 renal
RPMI-8226 leukemia = tested on: RPMI-8226 leukemia
SW-620 colon = tested on: SW-620 colon
DU-145 prostate = tested on: DU-145 prostate
UACC-257 melanoma = tested on: UACC-257 melanoma
OVCAR-3 ovarian = tested on: OVCAR-3 ovarian
PC-3 prostate = tested on: PC-3 prostate
OVCAR-4 ovarian = tested on: OVCAR-4 ovarian
NCI-H522 lung = tested on: NCI-H522 lung
NCI-H460 lung = tested on: NCI-H460 lung
SN12C renal = tested on: SN12C renal
NCI-H23 lung = tested on: NCI-H23 lung
SK-OV-3 ovarian = tested on: SK-OV-3 ovarian
A549 NSCLC = tested on: A549 NSCLC
SNB-19 CNS = tested on: SNB-19 CNS
SR leukemia = tested on: SR leukemia
OVCAR-5 ovarian = tested on: OVCAR-5 ovarian
UO-31 renal = tested on: UO-31 renal
SF-295 CNS = tested on: SF-295 CNS
COLO 205 colon = tested on: COLO 205 colon
KM12 colon = tested on: KM12 colon
LOX IMVI melanoma = tested on: LOX IMVI melanoma
HT29 colon = tested on: HT29 colon
CAKI-1 renal = tested on: CAKI-1 renal
ACHN renal = tested on: ACHN renal
UACC-62 melanoma = tested on: UACC-62 melanoma
786-0 renal = tested on: 786-0 renal
CCRF-CEM leukemia = tested on: CCRF-CEM leukemia
HL-60(TB) leukemia = tested on: HL-60(TB) leukemia
SF-268 CNS = tested on: SF-268 CNS
HCT-15 colon = tested on: HCT-15 colon
U251 CNS = tested on: U251 CNS
TK-10 renal = tested on: TK-10 renal
IGROV1 ovarian = tested on: IGROV1 ovarian
BT-549 breast = tested on: BT-549 breast
MOLT-4 leukemia = tested on: MOLT-4 leukemia
MDA-N = tested on: MDA-N
SK-MEL-2 melanoma = tested on: SK-MEL-2 melanoma
HOP-92 NSCLC = tested on: HOP-92 NSCLC
MDA-MB-231 breast = tested on: MDA-MB-231 breast
SK-MEL-28 melanoma = tested on: SK-MEL-28 melanoma
NCI/ADR-RES ovarian = tested on: NCI/ADR-RES ovarian
M14 melanoma = tested on: M14 melanoma
MALME-3M melanoma = tested on: MALME-3M melanoma
A498 renal = tested on: A498 renal

Measured: TGI

O=C(O)C1Cc2c([nH]c3ccccc23)C(CCCCO)N1 (configuration not stated)
> 100 µM: all assays above
